Laboratory results from a melting point compilation (Tetko et al.; mined from patent text by program, amines drawn as free bases though some values may be those of a salt).

Work on `CNC(=O)n1nc(Oc2ccc([N+](=O)[O-])c(C(F)(F)F)c2)cc1C` yielded a melting point of 139 to 141 °C. `CC(=O)OC1(C(C)=O)CCC2C3C=CC4=CC(=O)CCC4(C)C3C(F)CC21C` (stereo unspecified) showed a melting point of 220 to 222 °C. For `N#CSc1cnn(-c2nc(F)c(C(F)(F)F)cc2Cl)c1N`, the melting point was 109 to 114 °C. `COc1ccc(CC(C)NC(=O)C(F)(F)F)cc1` (stereo unspecified) gave a melting point of 100 to 102 °C. Molecule `CC(=O)OC1CSC(Oc2cc(C)c(Cl)cc2-c2ccno2)C(OC(C)=O)C1OC(C)=O` (stereo unspecified) has a melting point of 203 °C. Molecule `CCOC(=O)CCCN(C(=O)CCCN(C(=O)c1ccc(Cl)cc1)c1c(C)cccc1C)c1c(C)cccc1C` has a melting point of 95 to 97 °C. In the case of `Nc1cccc(CNC(=O)c2[nH]c3ccc(Cl)cc3c2S(=O)(=O)c2ccccc2)c1`, the melting point is reported as 247 to 249 °C. Molecule `CC(C#N)(c1ccccc1)c1ccc(Cl)nn1` (stereo unspecified) has a melting point of 116 to 118 °C. In the case of `c1cc(-n2ccnc2)cc(-n2cnc3cc(-c4ccco4)ccc32)c1`, the melting point is reported as 175 to 177 °C. Molecule `CCC/C=C/c1ccc(C#CC(C)(C)O)c(F)c1` has a melting point of 62 °C. `N#CC(N)=C(C#N)N=Cc1cnn(-c2c(Cl)cc(C(F)(F)F)cc2Cl)n1` showed a melting point of 234 to 235 °C. `COc1nc(C)nc(NC(=O)NS(=O)(=O)c2ccccc2OC(F)(F)C(F)(F)F)n1` showed a melting point of 157 to 159 °C. `N#Cc1cnn2c1N(C(=O)CN1CCN(Cc3ccccc3F)CC1)CC=C2c1cccc(C(F)(F)F)c1` gave a melting point of 188 to 190 °C. Molecule `N#CC(=O)c1ccccc1Br` has a melting point of 64 °C. With `O=C(CCN1CCN(c2ccc3c(c2)OCO3)CC1)c1csc2ccc(F)cc12` the melting point was 84 to 86 °C. With `O=C(Nc1ccccc1)C(Br)(Br)Br` the melting point was 97 to 98 °C. For `NC(=O)NCc1ccc(Cl)cc1`, the melting point was 186 to 189 °C. For `Cc1nc(NC(=O)C2c3ccccc3Oc3ccccc32)no1`, the melting point was 186 °C. Work on `Cc1nccn1CC(COc1cccc(Cl)c1)Sc1c(Cl)cccc1Cl` (stereo unspecified) yielded a melting point of 162 to 163 °C. In the case of `CC(C)N1CCC(N2CCN(CCCN3CCOCC3)C2=C(C#N)C#N)CC1`, the melting point is reported as 109 to 110 °C. In the case of `COC(=O)c1ccc(CCC(C)(C)NCC(O)c2cc3ccccc3o2)cc1` (stereo unspecified), the melting point is reported as 141 to 145 °C. Molecule `COc1cc2cc(CC(C)(C(N)=O)c3ccc(C#N)cc3)sc2cc1OC` (stereo unspecified) has a melting point of 178 to 180 °C. With `CCCCn1c(=O)n(C)c(=O)c2nc(-c3ccc(/C=C/C(=O)O)cc3)[nH]c21` the melting point was over 300 °C. Molecule `COC(=O)c1sc(-c2ccccc2)cc1N=NN(C)C` has a melting point of 92 to 94 °C. For `NC1=Nc2ccc(I)cc2C(c2ccccc2F)=NC1`, the melting point was 219 to 221 °C. Molecule `CC(=O)c1c(Cl)cccc1N1CCN(CCCCOc2ccc3c(n2)NC(=O)CC3)CC1` has a melting point of 115 °C. `Cc1nc(-c2cccc(-n3cnc4cc(-c5ccoc5)ccc43)c2)cs1` showed a melting point of 136 to 138 °C. In the case of `OCc1ccc(-c2c3ccccc3nn2Cc2ccco2)cc1`, the melting point is reported as 129 to 130 °C. For `O=C(c1ccc2ncccc2c1)c1ccc2[nH]c(=O)nc(-c3cccc(Cl)c3)c2c1`, the melting point was over 260 °C. `CC(CN1CCOCC1)N1CCN(c2ccccc2)CC1` (stereo unspecified) showed a melting point of 55 to 56 °C. `CC(C)(C)OC(=O)Cc1c(Cl)nc(N)nc1C#N` gave a melting point of 107 to 109 °C. `COc1cnc(-c2cccn3nc(Nc4ccc(C5CCN(C(=O)OC(C)(C)C)CC5)cc4)nc23)cn1` gave a melting point of 193 to 195 °C. `CC(=O)SCC(CCCc1ccccc1)C(=O)Nc1cccc(C(=O)O)c1` (stereo unspecified) gave a melting point of 142 to 145 °C. `O=C(c1nc(-c2ccccc2)nc2ccccc12)N1CCOCC1` showed a melting point of 148 °C. Molecule `COCCNC(=O)c1cccc(-c2cccc3cc(Cc4cccc(C(F)(F)F)c4)sc23)c1` has a melting point of 113 to 114 °C. `CCc1cc(S(=O)(=O)N(C)C)ccc1-c1cnc2[nH]c(CCc3cc(OC)ccn3)nc2c1` gave a melting point of 179 to 180 °C. For `CC(OC(=S)Nc1ccc(-c2ncn(-c3ccc(OC(F)(F)F)cc3)n2)cc1)c1ccc(C(F)(F)F)nc1` (stereo unspecified), the melting point was 186 to 188 °C. Work on `N#CCCOc1ccc2c(c1)CCO2` yielded a melting point of under 50 °C. `CN(N=C(Cl)c1c(Cl)cccc1Cl)S(=O)(=O)c1ccccc1` showed a melting point of 103 to 104 °C. `COC(=O)CC(Nc1ccccc1)c1ccccc1` (stereo unspecified) showed a melting point of 110 °C. Work on `OCc1cnn(-c2ccc(OC(F)(F)F)cc2)c1` yielded a melting point of 73 to 74 °C. With `Cn1ccnc1SCC(O)(Cn1cncn1)c1ccc(Cl)cc1Cl` (stereo unspecified) the melting point was 159 to 161 °C. Work on `COc1ccc(C(=O)N2CCc3cc(S(=O)(=O)N4CCN(c5cccc(Cl)c5)CC4)ccc32)cc1` yielded a melting point of 193 to 194 °C. Molecule `CC(NC(=O)OCc1ccccc1)NC(=O)C1C(C)(C)CCC1(C)C` (stereo unspecified) has a melting point of 146 °C. In the case of `O=C(O)c1cc(-c2ccccc2Cl)c[nH]c1=O`, the melting point is reported as 299 to 303 °C. With `OCC1(Nc2nc(-c3ccc(Br)cc3)cs2)CC1` the melting point was 129 to 131 °C. With `Cc1cc(CCCCCOc2ccc(-c3cnco3)cc2)on1` the melting point was 91 to 93 °C. With `O=C(O)C(Sc1ccc(Cl)cc1)c1ccc(Oc2ccccc2)cc1` (stereo unspecified) the melting point was 121 to 125 °C. `COc1ccc(-c2nc(N)sc2-c2cccnc2)cc1` gave a melting point of 265 to 266 °C. Molecule `C(=Cc1cccc2ccccc12)c1ccc(-c2cc3ccccc3o2)cc1` has a melting point of 154 to 155 °C. In the case of `O=C(N[C@H]1CC[C@H](CCN2CCN(c3nccc4c3OCC4)CC2)CC1)c1ccc(-n2cccn2)cc1`, the melting point is reported as 226 °C.
